Results published in US20250129334A1, “LINEAGE SPECIFICATION DURING STEM CELL TRANSITION” (Amniotics AB, priority 2021, published 2025).

Key:
HE cells = experiment: Lymphoid (NK) differentiation assay on OP9-DL1 stroma; type: cell-based, human; details: 3-day treatment, 35-day co-culture; UK5099 10 μM, DCA 3 mM
Experimental: Subculture day 3 HE cells cultured in the presence of UK5099 (10 μM) or DCA (3 mM or 10 mM), as indicated, were collected after a 2-minute incubation at 37° C. with StemPro Accutase Cell Dissociation Reagent and seeded onto 80% confluent OP9-DL1 stroma. Cells were cultured in OP9 medium (OptiMEM medium with Glutamax (Invitrogen) with 10% FCS, 1% penicillin-streptomycin solution (Thermo Fisher Scientific) and 1% 2-mercaptoethanol (Invitrogen)) with SCF (10 ng/ml), FLT3-L (10 ng/ml), IL-2 (5 ng/ml), IL-7 (5 ng/ml, first 15 days only) and IL-15 (10 ng/ml) with passaging onto new OP9-DL1 stroma every week, as described previously (Renoux, V. M. et al. Identification of a Human Natural Killer Cell Lineage-Restricted Progenitor in Fetal and Adult Tissues. Immunity 43, 394-407 (2015)). At day 35 of co-culture, cells were analyzed on a BD LSRFortessa.

HSC-like cells = experiment: HSC-like cell subculture with metabolic regulators, flow cytometry; type: cell-based, human; details: day 3, UK5099 10 μM
Description: The RB9-CB1 human iPSC line (Woods, N.-B. et al. Brief report: efficient generation of hematopoietic precursors and progenitors from human pluripotent stem cell lines. Stem Cells 29, 1158-1164 (2011)) was co-cultured with mouse embryonic fibroblasts (MEFs, Millipore), passaged every six days and processed to form embryoid bodies (EBs) as described previously (Guibentif, C. et al. Single-Cell Analysis Identifies Distinct Stages of Human Endothelial to-Hematopoietic Transition. Cell Reports 19, 10-19 (2017)). The differentiation protocol used in this study was previously described (Ditadi, A. & Sturgeon, C. M. Directed differentiation of definitive hemogenic endothelium and hematopoietic progenitors from human pluripotent stem cells. Methods 101, 65-72 (2016)), however, small modifications were made to induce both primitive and definitive hematopoiesis, as indicated below and in FIG. 6, a. Newly-formed EBs were first kept in SFD medium supplemented with 1 ng/ml Activin A (on days 0-2) and 3 μM CHIR99021 (on day 2 only). At day 3, media was switched to “Day 3-SP34” medium supplemented with 1 ng/ml Activin A (on day 3 only) and 3 μM CHIR99021 (on day 3 only) until day 6. On day 6, media was replaced by “Day 6-SP34” medium, until day 8. […]

Question: With N#CC(=Cc1cn(-c2ccccc2)c2ccccc12)C(=O)O [UK5099, 2-Cyano-3-(1-phenyl-1H-indol-3-yl)-2-propenoic acid] as the molecule, how does the “NK cell differentiation (CD45+CD56+ cells)” value (HE cells) read?
Answer: impaired NK cell formation

Question: And the “CD43+GPA+ cell output” value (HSC-like cells)?
Answer: absence of bias
